Measurements taken from patent publication US20250122192A1, “5-PYRIMIDINECARBOXAMIDE DERIVATIVES AND METHODS OF USING THE SAME” (Rgenta Therapeutics, Inc., priority 2021, published 2025).
Counter-ions that a name gives are not always drawn.

System: PMS1
Assay: Mini-gene reporter assay-PMS1
Type: cell-based
Conditions: Homo sapiens, HEK293, PMS1 mini-gene firefly luciferase reporter transiently transfected into HEK293 cells; read-out: PMS1 IC50
Outline: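 Compound dilution series in duplicate added to transiently transfected HEK293 reporter cells, then incubated; EC50 from Levenberg-Marquardt fit of luminescence. The reporter joins the alternatively skipped exon, its neighbouring introns and exons to firefly luciferase, so induced inclusion gives more signal.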

**Q.** For `CCOc1nc(N2CC[C@@H](N(C)C)C2)ncc1C(=O)Nc1cc(F)c2nn(C)cc2c1` [Compound 292, (R)-2-(3-(dimethylamino)pyrrolidin-1-yl)-4-ethoxy-N-(7-fluoro-2-methyl-2H-indazol-5-yl)pyrimidine-5-carboxamide formate], which IC50 is on record?
**A.** 1 to 3 µM

**Q.** How did the IC50 turn out when `CCNC1CCN(c2ncc(C(=O)Nc3cn4cc(C)nc4c(C)n3)c(OCC)n2)C1` (stereo not shown) [Compound 70] was run?
**A.** < 0.5 µM

**Q.** `CCOc1nc(N2CCNCC2)ncc1C(=O)Nc1cn2cc(C)nc2c(C)n1` [Compound 16, N-{2,8-dimethylimidazo[1,2-a]pyrazin-6-yl}-4-ethoxy-2-(piperazin-1-yl)pyrimidine-5-carboxamide] was tested. Which IC50 did it give?
**A.** > 3 µM

**Q.** For `CCOc1nc(N2CC3(CCCNC3)C2)ncc1C(=O)Nc1cn2cc(C)nc2c(C)n1` [Compound 87], which IC50 is on record?
**A.** 1 to 3 µM

**Q.** With `CCOc1nc(N2CCNCC2)ncc1C(=O)Nc1cc(OC)c2nc(C)cn2c1` [Compound 27, 4-ethoxy-N-{8-methoxy-2-methylimidazo[1,2-a]pyridin-6-yl}-2-(piperazin-1-yl)pyrimidine-5-carboxamide] as the compound, how does the IC50 read?
**A.** 0.5 to 1 µM

**Q.** For `CCOc1nc(N2CCNC(CC)C2)ncc1C(=O)Nc1cc(F)c2nc(C)cn2c1` (stereo not shown) [Compound 11, 4-ethoxy-2-(3-ethylpiperazin-1-yl)-N-{8-fluoro-2-methylimidazo[1,2-a]pyridin-6-yl}pyrimidine-5-carboxamide], which IC50 is on record?
**A.** < 0.5 µM

**Q.** Which IC50 does the source give for `COc1nc(N(C)C2CCNCC2)ncc1C(=O)Nc1cn2cc(C)nc2cn1` [Compound 257, 4-methoxy-2-(methyl(piperidin-4-yl)amino)-N-(2-methylimidazo[1,2-a]pyrazin-6-yl)pyrimidine-5-carboxamide formate] here?
**A.** 0.5 to 1 µM

**Q.** For `CCOc1nc(N2CCNC3CCCCC32)ncc1C(=O)Nc1cn2cc(C)nc2c(C)n1` (stereo not shown) [Compound 23], which IC50 is on record?
**A.** > 3 µM

**Q.** `CCOc1nc(N2CCCC(N3CCNCC3)C2)ncc1C(=O)Nc1cc(F)c2nc(C)cn2c1` (stereo not shown) [Compound 194] was tested. Which IC50 did it give?
**A.** 0.5 to 1 µM

**Q.** For `CCOc1nc(N2CCC3(CCNC3)C2)ncc1C(=O)Nc1cn2cc(C)nc2c(C)n1` (stereo not shown) [Compound 80], which IC50 is on record?
**A.** < 0.5 µM

**Q.** Which IC50 does the source give for `CCOc1nc(N2CCC(NC)C2)ncc1C(=O)Nc1cnc2nc(C)cn2c1` (stereo not shown) [Compound 287, 4-ethoxy-2-(3-(methylamino)pyrrolidin-1-yl)-N-(2-methylimidazo[1,2-a]pyrimidin-6-yl)pyrimidine-5-carboxamide fomate] here?
**A.** 1 to 3 µM

**Q.** Which IC50 does the source give for `CCOc1nc(N(C)C2CCCNCC2)ncc1C(=O)Nc1cc(F)c2nc(C)cn2c1` (stereo not shown) [Compound 173] here?
**A.** < 0.5 µM

**Q.** Which IC50 does the source give for `CCOc1nc(N2CC[C@@H](CNC)C2)ncc1C(=O)Nc1cc(F)c2nc(C)cn2c1` [Compound 304, (S)-4-ethoxy-N-(8-fluoro-2-methylimidazo[1,2-a]pyridin-6-yl)-2-(3-((methylamino)methyl)pyrrolidin-1-yl)pyrimidine-5-carboxamide 4-methylbenzenesulfonate] here?
**A.** 0.5 to 1 µM

**Q.** Which IC50 does the source give for `CCOc1nc(N2C[C@@H](C)N[C@@H](C)C2)ncc1C(=O)Nc1cc(F)c2nc(C)cn2c1` [Compound 231] here?
**A.** < 0.5 µM

**Q.** With `CCOc1nc(N(CC)C2CCNCC2)ncc1C(=O)Nc1cn2cc(C)nc2cn1` [Compound 267, 4-ethoxy-2-(ethyl(piperidin-4-yl)amino)-N-(2-methylimidazo[1,2-a]pyrazin-6-yl)pyrimidine-5-carboxamide formic acid] as the compound, how does the IC50 read?
**A.** 0.5 to 1 µM

**Q.** For `CCOc1nc(N2C3CCNCC2CC3)ncc1C(=O)Nc1cc(F)c2nc(C)cn2c1` (stereo not shown) [Compound 175], which IC50 is on record?
**A.** > 3 µM

**Q.** With `CCOc1nc(N2CC(C3CCCCCN3)C2)ncc1C(=O)Nc1cn2cc(C)nc2c(C)n1` (stereo not shown) [Compound 59] as the compound, how does the IC50 read?
**A.** < 0.5 µM

**Q.** Which IC50 does the source give for `CCOc1nc(N2CCCC(C3CCCCN3)C2)ncc1C(=O)Nc1cn2cc(C)nc2c(C)n1` (stereo not shown) [Compound 34] here?
**A.** > 3 µM

**Q.** How did the IC50 turn out when `CCOc1nc(N2CC[C@@H]3CNC[C@@H]32)ncc1C(=O)Nc1cn2cc(C)nc2c(C)n1` (racemic) [Compound 60] was run?
**A.** 0.5 to 1 µM

**Q.** With `CCOc1nc(N(C)C2CCNCC2)ncc1C(=O)Nc1cc(F)c2nc(C)cn2c1` [Compound 241] as the compound, how does the IC50 read?
**A.** < 0.5 µM

**Q.** `CCOc1nc(N2CC(C3CNC3)C2)ncc1C(=O)Nc1cn2cc(C)nc2c(C)n1` [Compound 52] was tested. Which IC50 did it give?
**A.** > 3 µM

**Q.** For `CCOc1nc(N2CCNCC(C)(C)C2)ncc1C(=O)Nc1cc(F)c2nc(C)cn2c1` [Compound 118], which IC50 is on record?
**A.** 1 to 3 µM

**Q.** For `CCOc1nc(N(C)C[C@H]2[C@@H]3CNC[C@@H]32)ncc1C(=O)Nc1cc(F)c2nc(C)cn2c1` [Compound 117], which IC50 is on record?
**A.** 1 to 3 µM

**Q.** `CCOc1nc(N2CCC3(CC2)CNCCO3)ncc1C(=O)Nc1cc(F)c2nc(C)cn2c1` [Compound 204] was tested. Which IC50 did it give?
**A.** 0.5 to 1 µM

**Q.** With `COc1nc(NC2CCNCC2)ncc1C(=O)Nc1cn2cc(C)nc2c(C)n1` [Compound 266, N-(2,8-dimethylimidazo[1,2-a]pyrazin-6-yl)-4-methoxy-2-(piperidin-4-ylamino) pyrimidine-5-carboxamide formic acid] as the compound, how does the IC50 read?
**A.** 1 to 3 µM

**Q.** For `CCOc1nc(N2CCNCC(CO)C2)ncc1C(=O)Nc1cc(F)c2nc(C)cn2c1` (stereo not shown) [Compound 109], which IC50 is on record?
**A.** 1 to 3 µM

**Q.** How did the IC50 turn out when `CCOc1nc(N(C)C2CCNC2)ncc1C(=O)Nc1cc(F)c2nc(C)cn2c1` (stereo not shown) [Compound 238] was run?
**A.** < 0.5 µM

**Q.** How did the IC50 turn out when `CCOc1nc(N2CCC(C3NCC3(C)C)CC2)ncc1C(=O)Nc1cc(F)c2nc(C)cn2c1` (stereo not shown) [Compound 123] was run?
**A.** < 0.5 µM

**Q.** How did the IC50 turn out when `CCOc1nc(N2CCC(CNC)C2)ncc1C(=O)Nc1cc(F)c2nc(C)cn2c1` (stereo not shown) [Compound 211] was run?
**A.** < 0.5 µM

**Q.** How did the IC50 turn out when `CCOc1nc(N2CCCNC(CO)C2)ncc1C(=O)Nc1cc(F)c2nc(C)cn2c1` (stereo not shown) [Compound 121] was run?
**A.** 1 to 3 µM

**Q.** For `COc1nc(N(C)C2CCNCC2)ncc1C(=O)Nc1cn2cc(C)nc2c(C)n1` [Compound 253, N-(2,8-dimethylimidazo[1,2-a]pyrazin-6-yl)-4-methoxy-2-(methyl(piperidin-4-yl)amino) pyrimidine-5-carboxamide formate], which IC50 is on record?
**A.** < 0.5 µM

**Q.** For `CCNC1CCN(c2ncc(C(=O)Nc3cc(F)c4nc(C)cn4c3)c(OCC)n2)CC1` [Compound 214], which IC50 is on record?
**A.** < 0.5 µM

**Q.** Which IC50 does the source give for `CCOc1nc(N2CC(C)OC3(CCNC3)C2)ncc1C(=O)Nc1cc(F)c2nc(C)cn2c1` (stereo not shown) [Compound 149] here?
**A.** > 3 µM

**Q.** With `CCOc1nc(N2CCC[C@H]3NCC[C@H]32)ncc1C(=O)Nc1cc(F)c2nc(C)cn2c1` (racemic) [Compound 178] as the compound, how does the IC50 read?
**A.** < 0.5 µM

**Q.** How did the IC50 turn out when `CCOc1nc(N2CC[C@H](N(C)C)C2)ncc1C(=O)Nc1cc(F)c2nc(C)cn2c1` [Compound 294, (S)-2-(3-(dimethylamino)pyrrolidin-1-yl)-4-ethoxy-N-(8-fluoro-2-methylimidazo[1,2-a]pyridin-6-yl)pyrimidine-5-carboxamide formate] was run?
**A.** > 3 µM

**Q.** How did the IC50 turn out when `CCOc1nc(N2CCNCC2)ncc1C(=O)Nc1cc2cn(C)nc2c(F)c1C` [Compound 307, 4-ethoxy-N-(7-fluoro-2,6-dimethyl-2H-indazol-5-yl)-2-(piperazin-1-yl)pyrimidine-5-carboxamide hydrochloride] was run?
**A.** 1 to 3 µM

**Q.** `CCOc1nc(N2CCNC(C)C2C)ncc1C(=O)Nc1cn2cc(C)nc2c(C)n1` (stereo not shown) [Compound 35] was tested. Which IC50 did it give?
**A.** > 3 µM

**Q.** Which IC50 does the source give for `CCOc1nc(N2CC[C@H]3CN[C@H]3C2)ncc1C(=O)Nc1cc(F)c2nc(C)cn2c1` (racemic) [Compound 169] here?
**A.** 0.5 to 1 µM

**Q.** `CCOc1nc(N2CCC(CN(C)C)CC2)ncc1C(=O)Nc1cc(F)c2nc(C)cn2c1` [Compound 300, 2-(4-((dimethylamino)methyl)piperidin-1-yl)-4-ethoxy-N-(8-fluoro-2-methylimidazo[1,2-a]pyridin-6-yl)pyrimidine-5-carboxamide formate] was tested. Which IC50 did it give?
**A.** 1 to 3 µM

**Q.** With `CCOc1nc(N2CCO[C@H]3CNC[C@H]32)ncc1C(=O)Nc1cc(F)c2nc(C)cn2c1` (racemic) [Compound 177] as the compound, how does the IC50 read?
**A.** 1 to 3 µM

**Q.** Which IC50 does the source give for `CCOc1nc(N2CCC3CCNCC32)ncc1C(=O)Nc1cc(F)c2nc(C)cn2c1` (stereo not shown) [Compound 201] here?
**A.** < 0.5 µM

**Q.** With `CCOc1nc(N(CC)C2CCNCC2)ncc1C(=O)Nc1ccc2nn(C)cc2c1` [Compound 272, 4-ethoxy-2-(ethyl(piperidin-4-yl)amino)-N-(2-methyl-2H-indazol-5-yl)pyrimidine-5-carboxamide formate] as the compound, how does the IC50 read?
**A.** 1 to 3 µM

**Q.** `CCOc1nc(N2CC[C@H](NC)C2)ncc1C(=O)Nc1ccc2nc(C)cn2c1` [Compound 293, (S)-4-ethoxy-2-(3-(methylamino)pyrrolidin-1-yl)-N-(2-methylimidazo[1,2-a]pyridin-6-yl)pyrimidine-5-carboxamide formate] was tested. Which IC50 did it give?
**A.** > 3 µM

**Q.** How did the IC50 turn out when `CCOc1nc(N2CCNC(C)(C)C2)ncc1C(=O)Nc1cn2cc(C)nc2cn1` [Compound 10, 2-(3,3-dimethylpiperazin-1-yl)-4-ethoxy-N-{2-methylimidazo[1,2-a]pyrazin-6-yl}pyrimidine-5-carboxamide] was run?
**A.** > 3 µM

**Q.** How did the IC50 turn out when `CCOc1nc(N2CC34CCCC3(CNC4)C2)ncc1C(=O)Nc1cc(F)c2nc(C)cn2c1` (stereo not shown) [Compound 151] was run?
**A.** 1 to 3 µM

**Q.** With `CCOc1nc(N2CC3CNCC3C2)ncc1C(=O)Nc1cn2cc(C)nc2cn1` (stereo not shown) [Compound 28, 4-ethoxy-N-{2-methylimidazo[1,2-a]pyrazin-6-yl}-2-{octahydropyrrolo[3,4-c]pyrrol-2-yl}pyrimidine-5-carboxamide] as the compound, how does the IC50 read?
**A.** 1 to 3 µM

**Q.** For `CCOc1nc(N2CCNCC2)ncc1C(=O)Nc1ccc2nn(C)cc2c1` [Compound 25, 4-ethoxy-N-(2-methyl-2H-indazol-5-yl)-2-(piperazin-1-yl)pyrimidine-5-carboxamide], which IC50 is on record?
**A.** 1 to 3 µM

**Q.** `CCOc1nc(N2CCC3(CCNC3)CC2)ncc1C(=O)Nc1cn2cc(C)nc2c(C)n1` [Compound 89] was tested. Which IC50 did it give?
**A.** > 3 µM

**Q.** For `CCOc1nc(N2CC3CCC2CN3)ncc1C(=O)Nc1cn2cc(C)nc2c(C)n1` (stereo not shown) [Compound 53], which IC50 is on record?
**A.** 0.5 to 1 µM

Same assay, conditions: Homo sapiens; at 5 μM; PMS1 mini-gene firefly luciferase reporter in HEK293 cells; read-out: PMS1% Effect at 5 μM

**Q.** `CCOc1nc(N2CC(CO)C3(CNC3)C2)ncc1C(=O)Nc1cn2cc(C)nc2c(C)n1` (stereo not shown) [Compound 50] was tested. Which activation at 5 µM did it give?
**A.** < 50%

**Q.** With `CCOc1nc(N2CCO[C@H]3CNC[C@H]32)ncc1C(=O)Nc1cn2cc(C)nc2c(C)n1` (racemic) [Compound 93] as the compound, how does the activation at 5 µM read?
**A.** < 50%

**Q.** How did the activation at 5 µM turn out when `COc1nc(N(C)C2CCNCC2)ncc1C(=O)Nc1cc(F)c2nn(C)cc2c1` [Compound 281, N-(7-fluoro-2-methyl-2H-indazol-5-yl)-4-methoxy-2-(methyl(piperidin-4-yl)amino) pyrimidine-5-carboxamide formate] was run?
**A.** > 75%
